Measurements reported in patent publication US8871751B2, “Compositions and methods relating to nuclear hormone and steroid hormone receptors including inhibitors of estrogen receptor alpha-mediated gene expression and inhibition of breast cancer” (The Board of Trustees of the University of Illinois, priority 2008, dated 2014).
“Also recorded” adds a separate entry of the source. Like-named read-outs stand apart in the source and are kept apart here.

Legend:
ERα = target: T1, ERα (Homo sapiens, UniProt P03372); test: (ERE)3-luciferase reporter gene assay in T47D-KBluc cells; type: cell-based; set-up: Using a stably transfected breast cancer cell line that expresses endogenous ERα; endogenous in cells; host or cells: T47D-KBluc
T1 sequence (P03372 1-595): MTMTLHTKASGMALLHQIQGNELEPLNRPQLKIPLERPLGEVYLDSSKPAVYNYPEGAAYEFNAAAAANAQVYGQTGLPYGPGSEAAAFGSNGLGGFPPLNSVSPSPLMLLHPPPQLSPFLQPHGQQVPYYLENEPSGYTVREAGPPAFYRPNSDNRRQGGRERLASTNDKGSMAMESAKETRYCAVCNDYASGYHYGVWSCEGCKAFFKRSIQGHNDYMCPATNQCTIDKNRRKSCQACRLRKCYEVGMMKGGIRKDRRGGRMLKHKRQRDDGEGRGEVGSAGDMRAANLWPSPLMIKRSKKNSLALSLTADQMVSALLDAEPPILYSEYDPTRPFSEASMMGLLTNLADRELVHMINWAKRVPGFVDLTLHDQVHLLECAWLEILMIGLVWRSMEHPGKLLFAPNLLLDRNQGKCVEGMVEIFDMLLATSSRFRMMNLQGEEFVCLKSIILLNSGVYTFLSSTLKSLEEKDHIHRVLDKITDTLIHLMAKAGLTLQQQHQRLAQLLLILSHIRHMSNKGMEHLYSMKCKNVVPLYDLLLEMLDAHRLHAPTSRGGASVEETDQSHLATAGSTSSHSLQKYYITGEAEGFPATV
Method: The T47D-KBluc cells stably express an (ERE)3-luciferase reporter gene (38). […] Four days before E2 induction, the cells were switched to the above medium, with 10% 2× charcoal-dextran-treated calf serum instead of FBS. 200,000 cells/well were transferred to each well of a 24-well plate. After 24 h the indicated concentrations of the test compounds were added in DMSO and E2 was added to 20 pM. After 24 h cells were washed once in PBS, and 150 μl 1× Passive Lysis Buffer (Promega, Madison Wis.) was used to lyse the cells. Luciferase activity was determined using firefly luciferase reagents from Promega (Madison, Wis.).
Reporter Gene Assays. […] AR was assayed in stably transfected HeLa cells and GR was assayed in stably transfected T47D cells maintained as described above. Four days before each experiment the cells were switched to medium containing CD-treated serum as described above. The HeLaAR cells were plated at 100,000 cells/well and the T47D/A1-2 and T47D-KBluc cells were plated at 200,000 cells/well in 1 ml of their respective media in 24-well plates. After 24 hours the indicated concentrations of E2, dihydrotestosterone (DHT) or dexamethasone (Dex) and DMSO vehicle, with or without TPSF, were added to each well. After 24 hours, the cells were washed once in phosphate buffered saline and lysed using 100 μl of 1× Passive Lysis Buffer (Promega, Madison Wis.). Luciferase activity was determined using BrightGlo firefly luciferase reagent from Promega (Madison, Wis.).

[1] = test system: ERα negative MDA-MB-231 cells; test: MDA-MB-231 cell growth / toxicity assay (MTS); type: cell-based, human; conditions: for effect on growth of ER negative MDA-MB-231 cells: all concentrations; for effect on growth of MDA-MB-231 cells (toxicity): up to 30 μM, Example 1 assays (1 day / 5 days)
Method: ERα negative MDA-MB-231 human breast cancer cells were used to test for generalized toxicity of the test compounds. To parallel the reporter gene assays in stably transfected T47D breast cancer cells, 5,000 MDA-MB-231 cells per well were plated in a 96 well plate. The cells were maintained in the medium described above for the T47D cells. One day after plating, the same concentration of test compound used in the reporter gene assay (up to 30 μM) was added. After 24 h the MTS assay was carried out as described above. A more stringent toxicity assay parallels the assay for inhibition of estrogen-dependent growth of BG-1 cells. 250 MDA-MB-231 cells were plated per well and maintained and assayed as described for the BG-1 cells. Several compounds without detectable toxicity in the 24-h assay inhibited MDA-MB-231 cell growth in the 5-6 day assay.
Assays for Cell Growth and Viability. Cells were maintained in the media listed above containing CD-treated serum for at least 4 days prior to the experiment. To minimize cell aggregation, MCF-7 cells were harvested in 10 mM Hepes, pH 7.4, 1 mM EDTA. Other cell lines were harvested in trypsin-EDTA. 1,000 cells were plated into each well of a 96 well plate. For slow growing ZR-75 cells, 2,000 cells were plated/well. The cells were maintained in medium containing CD-treated serum for 24 hours. At 24 hours the medium was changed and E2 and DMSO vehicle or TPSF in DMSO was added. The medium was replaced after 2 days (except for BT474 cells whose medium was not changed). After 4 days viable cells were determined using a cell viability test, Promega CellTiter 96 Aqueous One Solution Cell Proliferation Assay (MTS) (Promega, Wis.).

[2] = T47D-KBluc cells, 20 pM E2, 24 h, read-out: IC50 for inhibition of E2 dependent ERα transactivation, (ERE)3-luciferase

**Q.** How did the “concentrations necessary to inhibit AR and GR relative to average IC50 for the two ER-regulated genes (higher)” value (ERα) turn out when Cn1c(=S)c2[nH]c(SCCCC(=O)c3ccc(F)cc3)nc2n(C)c1=O [TPSF, Butyrophenone, p-fluoro-4-(1,2,3,6,-tetrahydro-1,3-dimethyl-2-oxo-6-thionopurin-8-ylthio)] was run?
**A.** The value was 20-70 fold.

**Q.** What about the “potency as ERα inhibitor relative to TPBM (more potent)” value (ERα) of the same compound?
**A.** Its value is greater than 15 fold.

**Q.** And the IC50 (ERα; PI-9 in MCF-7 and (ERE)3-Luc in T47D, read-out: average IC50 for inhibition of the two ER-regulated genes)?
**A.** Its IC50 is 450 nM.

**Q.** What about the IC50 ([1]; Homo sapiens, MDA-MB-231, 96 h, 4 days, MTS, read-out: IC50 for inhibition of MDA-MB-231 (ER Neg. cells) cell growth) of the same compound?
**A.** Its IC50 is greater than 30 µM.

**Q.** And the “inhibition of growth of MDA-MB-231 cells” value ([1]; all concentrations tested, including 30 μM, 4 days)?
**A.** The value was 0%.

**Q.** And the “effect on growth of ER negative MDA-MB-231 cells” value ([1]; including 30 μM, 4 days)?
**A.** Its value is “did not inhibit growth; also recorded: lacks toxicity”.

**Q.** And the “effect on growth of ER negative MDA-MB-231 cells” value ([1]; including 30 μM, 4 days, listed as 97998/TPSF)?
**A.** The value was “did not inhibit growth; also recorded: does not inhibit growth”.

**Q.** Cn1c(=O)c2[nH]c(C3CC4CCC3C4)nc2n(C)c1=O (stereo not shown) [Compound 101807, 8-Bicyclo[2.2.1]hept-2-yl-1,3-dimethyl-3,7-dihydro-purine-2,6-dione] was tested. Which “ER at 10 μM” value (ERα) did it give?
**A.** Its value is 0.

**Q.** How did the “ER at 10 μM” value (ERα) turn out when Cn1c(=O)c2[nH]c(SC3CCCCC3)nc2n(C)c1=S [Compound 95899, 8-Cyclohexylsulfanyl-1,3-dimethyl-2-thioxo-1,2,3,7-tetrahydro-purin-6-one] was run?
**A.** Its value is 36.

**Q.** How did the “effect on growth of MDA-MB-231 cells (toxicity)” value [1] turn out when Cn1c(=O)c2nc(CSCc3ccccc3)[nH]c2n(C)c1=O [Compound 95910, 8-Benzylsulfanylmethyl-1,3-dimethyl-3,7-dihydro-purine-2,6-dione] was run?
**A.** The value was “No toxicity”.

**Q.** And the “effect on growth of MDA-MB-231 cells (toxicity)” value ([1]; listed as TPBM)?
**A.** The value was “had no effect; also recorded: no inhibition”.

**Q.** CCCSc1nc2c([nH]1)c(=O)n(C)c(=S)n2C [Compound 95869, 1,3-Dimethyl-8-propylsulfanyl-2-thioxo-1,2,3,7-tetrahydro-purin-6-one] was tested. Which “ER at 10 μM” value (ERα) did it give?
**A.** The value was 20.

**Q.** How did the IC50 (ERα; [2]) turn out when CN1CCC(C#N)c2ccccc21 (stereo not shown) [Compound 1529] was run?
**A.** The IC50 was 22000 nM.

**Q.** And the “reduction of growth of MDA-MB-231 cells” value ([1]; 30 μM, 5 days)?
**A.** The value was 50-60%.

**Q.** What about the “effect on growth of MDA-MB-231 cells” value ([1]; 1-20 μM, 5 days) of the same compound?
**A.** The value was “unaffected”.

**Q.** Which IC50 (ERα; [2]) does the source give for CN(C)CCCn1c2c3ccccc3ccc2c2oc(=O)c3ccccc3c21 [Compound 638432] here?
**A.** The IC50 was 800 nM.
